For test [1], the system named is Chlamydia pneumoniae. The experiment in a line: Antimicrobial activity against Chlamydophila pneumoniae infected in human Hep2 cells after 72 hrs by twofold serial dilution method. The test is classed as functional, HEp-2.
The subject of test [2] is Chlamydia trachomatis. The experiment in a line: Antimicrobial activity against Chlamydia trachomatis after 72 hrs by twofold serial dilution method. The test is classed as functional.
Test [3] deals with Chlamydia pneumoniae. The experiment in a line: Antimicrobial activity against Chlamydophila pneumoniae infected in human Hep2 cells after 72 hrs by fluorescence assay. It is filed as functional, HEp-2.
For test [4], the system named is Chlamydia trachomatis. The experiment in a line: Antimicrobial activity against Chlamydia trachomatis after 72 hrs by fluorescence assay. It is filed as functional.
Test [5] concerns Ureaplasma urealyticum. The experiment in a line: Antimicrobial activity against Ureaplasma urealyticum by microtiter plate reader assay. It is filed as functional.
The subject of test [6] is Metamycoplasma hominis. The experiment in a line: Antimicrobial activity against Mycoplasma hominis by microtiter plate reader assay. It is filed as functional.
Test [7] concerns Mycoplasma genitalium. The experiment in a line: Antimicrobial activity against Mycoplasma genitalium by microtiter plate reader assay. The test is classed as functional. The settings on record: Mycoplasmoides genitalium.
The subject of test [8] is Mycoplasmoides pneumoniae. The experiment in a line: Antimicrobial activity against Mycoplasma pneumoniae by microtiter plate reader assay. The test is classed as functional.
The test system of test [9] is Neisseria gonorrhoeae. The experiment in a line: Antimicrobial activity against Neisseria gonorrhoeae by microtiter plate reader assay. It is filed as functional.

In brackets after ≈: the same amount, converted by molar mass.

As a reminder, the MIC50 is the lowest concentration that inhibits either 50% of growth or 50% of the strains tested, depending on the study. The low end stands for higher susceptibility, the high end for lower susceptibility. One may read the MIC90 as an inhibitory concentration at the 90% level, which refers to growth in some studies and to a panel of isolates in others. A low value points to greater potency. In general, MIC refers to the smallest concentration in the dilution series that meets the test's criterion for growth inhibition. The low end stands for inhibition by little substance, the high end for a need for much substance.

For the compound `CC[C@H]1OC(=O)[C@H](C)[C@@H](O[C@H]2C[C@@](C)(OC)[C@@H](O)[C@H](C)O2)[C@H](C)[C@@H](O[C@@H]2O[C@H](C)C[C@H](N(C)C)[C@H]2O)[C@](C)(O)C[C@@H](C)CN(C)[C@H](C)[C@@H](O)[C@]1(C)O` [AZITHROMYCIN], the MIC50 in test [1] and in test [2] was 125 ng/mL (≈ 167 nM) each time. The MIC90 in test [1] and in test [2] was 125 ng/mL (≈ 167 nM) throughout.

As to `CC[C@H]1OC(=O)[C@H](C)[C@@H](O[C@H]2C[C@@](C)(OC)[C@@H](O)[C@H](C)O2)[C@H](C)[C@@H](O[C@@H]2O[C@H](C)C[C@H](N(C)C)[C@H]2O)[C@](C)(OC)C[C@@H](C)C(=O)[C@H](C)[C@@H](O)[C@]1(C)O` [CLARITHROMYCIN], the MIC50 in [1] and in test [2] was 60 ng/mL (≈ 80.2 nM) throughout. The MIC90 in test [1] and in [2] was 60 ng/mL (≈ 80.2 nM) throughout. Moreover, the MBC90 in test [3] and in [4] was 60 ng/mL (≈ 80.2 nM) in each case.

With `C[C@H]1c2cccc(O)c2C(=O)C2=C(O)[C@]3(O)C(=O)C(C(N)=O)=C(O)[C@@H](N(C)C)[C@@H]3[C@@H](O)[C@@H]21.O` [DOXYCYCLINE], the MIC50 in test [1] and in test [2] was 60 ng/mL each time. The MIC90 in [1] and in test [2] was 60 ng/mL throughout. Besides, the MBC90 in test [3] and in test [4] was 60 ng/mL throughout.

For `CC[C@H]1OC(=O)[C@@](C)(F)C(=O)[C@H](C)[C@@H](O[C@@H]2O[C@H](C)C[C@H](N(C)C)[C@H]2O)[C@](C)(OC)C[C@@H](C)C(=O)[C@H](C)[C@H]2N(CCCCn3cc(-c4cccc(N)c4)nn3)C(=O)O[C@]12C` [SOLITHROMYCIN], the MIC50 in test [1] and in test [2] was 250 ng/mL (≈ 296 nM) throughout. In addition, the MIC90 in test [1] and in test [2] was 250 ng/mL (≈ 296 nM) in each case. In addition, the MIC in test [5] is 0.03 ng/mL (≈ 0.0355 nM); in test [6] it was at most 0.03 ng/mL; in test [7], at most 0.03 ng/mL; in [8], at most 500 ng/mL; in [9] it was at most 250 ng/mL. The MBC90 in test [3] and in test [4] was 250 ng/mL (≈ 296 nM) throughout.

On to `CC[C@H]1OC(=O)[C@H](C)C(=O)[C@H](C)[C@@H](O[C@@H]2O[C@H](C)C[C@H](N(C)C)[C@H]2O)[C@](C)(OC)C[C@@H](C)C(=O)[C@H](C)[C@H]2N(CCCCn3cnc(-c4cccnc4)c3)C(=O)O[C@]12C` [TELITHROMYCIN], for which the MIC50 in [1] and in [2] was 60 ng/mL (≈ 73.9 nM) in each case. Moreover, the MIC90 in test [1] and in test [2] was 60 ng/mL (≈ 73.9 nM) in each case. Moreover, the MBC90 in [3] and in [4] was 60 ng/mL (≈ 73.9 nM) throughout.

The values are drawn from ChEMBL document CHEMBL1240387, “In vitro activity of CEM-101, a new fluoroketolide antibiotic, against Chlamydia trachomatis and Chlamydia (Chlamydophila) pneumoniae” (2010).
